Source: patent publication US20210346392A1, “PHARMACEUTICAL COMPOSITION FOR ORAL ADMINISTRATION” (ASTELLAS PHARMA INC., priority 2018, published 2021)
In brackets after ≈: the same amount, converted by molar mass. Like-named read-outs stand apart in the source and are kept apart here.

Legend:
[1] = Solubility of compound A in Japanese Pharmacopoeia dissolution test fluids; assay type: physicochemical; settings: for solubility: Seventeenth Edition
Source text: When compound A was formulated, the solubility of compound A was confirmed based on a Dissolution Test of the Japanese Pharmacopoeia, Seventeenth Edition, and there was a large difference between an acidic pH range and a neutral pH range.

[2] = Storage stability: total amount of related substances by HPLC (Experimental Example 1); assay type: physicochemical; settings: stored at 40° C., 75% RH for 1 month, glass bottle, covered
Source text: The storage stability as used herein can be evaluated by measuring the change in the amount of related substances derived from compound A when the pharmaceutical composition for oral administration is stored under certain storage conditions. For example, after the pharmaceutical composition for oral administration is stored under certain conditions, the total amount of related substances of compound A contained in the pharmaceutical composition for oral administration, or a specific related substance of compound A is measured. […] The percentage (%) of the total peak area of related substances with respect to the sum of all peak areas including the peak area of compound A are calculated, and is compared with the value before storage to calculate the amount of change (the amount of increase)(%). Alternatively, as shown in Experimental Example 3 described below, the percentage (%) of the peak area of related substance A with respect to the sum of all peak areas obtained in the same manner is calculated, and it is also possible to evaluate the storage stability by the change over time of related substance A.
The physical mixtures obtained in Example 1 and Comparative Example 1 were placed in glass bottles, covered, and stored at 40° C., 75% RH for 1 month, and the total amount of related substances before and after storage was measured by the method described below. […]

Cc1nc(CN2CCS(=O)(=O)CC2)c2cc(C3CCC(C)(C)CC3)sc2n1 [Compound A, 6-(4,4-Dimethylcyclohexyl)-4-[(1,1-dioxo-1λ^6-thiomorpholin-4-yl)methyl]-2-methylthieno[2,3-d]pyrimidine]
difference of solubility between acidic and neutral pH range ([1]; first fluid vs second fluid): approximately 30 times | solubility ([1]; pH 1.2, simulated gastric fluid, first fluid for a Dissolution Test of the Japanese Pharmacopoeia, read-out: solubility in an acidic pH range): ~41 µg/mL (≈ 101 µM) | solubility ([1]; pH 6.8, aqueous buffer, second fluid for a Dissolution Test of the Japanese Pharmacopoeia, read-out: solubility at a neutral pH range): ~1.2 µg/mL (≈ 2.94 µM) | Increased amount of total related substances (%) (n = 2) [2]: 0.00% | Increased amount of total related substances (%) (n = 2) ([2]; listed as compound A): did not increase
